ChEMBL document CHEMBL5584314, “Identification of an m6A Natural Inhibitor, Lobeline, That Reverses Lenvatinib Resistance in Hepatocellular Tumors” (J Nat Prod, 2024)
Activity calls are given as the source filed them.

How the values were obtained:
[1] = Toxicity in BALB/c nude mouse xenografted with human Lenvatinib-resistant Huh7/Len cells assessed as changes in body weight at 3 mg/kg, IG cotreated with lobeline 5 times per week for 3 weeks; type: organism-based; settings: in vivo, po, 504 h
[2] = system: Lenvatinib-resistant Hep3B/Len; assay: Inhibition of cell migration in human Lenvatinib-resistant Hep3B/Len cells at 5 uM incubated for 48 hrs in presence of lobeline by transwell assay relative to control; type: functional
[3] = system: Lenvatinib-resistant HCC/Len; assay: Antitumor activity against human Lenvatinib-resistant HCC/Len cells xenografted in BALB/c nude mouse model of PDX assessed as reduction in m6A protein expression tumor tissue at 3 mg/kg, IG cotreated with lobeline 5 times per week for 3 weeks by immunohistochemistry analysis; type: functional, organism-based
[4] = system: Lenvatinib-resistant HCC/Len; assay: Antitumor activity against human Lenvatinib-resistant HCC/Len cells xenografted in BALB/c nude mouse model of PDX assessed as tumor growth inhibition at 3 mg/kg, IG cotreated with lobeline 5 times per week for 3 weeks; type: functional, organism-based
[5] = system: Lenvatinib-resistant Hep3B/Len; assay: Antiproliferative activity against human Lenvatinib-resistant Hep3B/Len cells assessed as inhibition of clone formation ability at 5 to 10 uM preincubated for 72 hrs and measured after 7 to 10 days by crystal violet staining based assay; type: functional, cell-based; settings: dose 5-10 µM, time 10-13 day
[6] = system: Lenvatinib-resistant Huh7/Len; assay: Antitumor activity against human Lenvatinib-resistant Huh7/Len cells xenografted in BALB/c nude mouse assessed as reduction in Ki-67 protein expression tumor tissue at 3 mg/kg, IG cotreated with lobeline 5 times per week for 3 weeks by immunohistochemistry analysis; type: functional; parameters: scale not given: the % may be the effect or the level left
[7] = system: Lenvatinib-resistant Hep3B/Len; assay: Antiproliferative activity against human Lenvatinib-resistant Hep3B/Len cells assessed as inhibition of cell viability up to 40 uM after 72 hrs in presence of lobeline by CCK-8 assay; type: functional, cell-based
[8] = Toxicity in BALB/c nude mouse xenografted with human Lenvatinib-resistant Huh7/Len cells assessed as changes in body weight at 3 mg/kg, IG administered 5 times per week for 3 weeks; type: organism-based; settings: in vivo, po, 504 h
[9] = Toxicity in BALB/c nude mouse xenografted with human Lenvatinib-resistant Huh7/Len cells assessed as changes in organ index at 3 mg/kg, IG administered 5 times per week for 3 weeks; type: organism-based; settings: in vivo, po, 504 h
[10] = system: Lenvatinib-resistant Huh7/Len; assay: Induction of apoptosis in human Lenvatinib-resistant Huh7/Len cells xenografted in BALB/c nude mouse assessed as apoptotic cells in tumor tissue at 3 mg/kg, IG cotreated with lobeline 5 times per week for 3 weeks by immunohistochemistry analysis; type: functional, organism-based
[11] = Toxicity in BALB/c nude mouse xenografted with human Lenvatinib-resistant Huh7/Len cells assessed as changes in organ index at 3 mg/kg, IG cotreated with lobeline 5 times per week for 3 weeks; type: organism-based; settings: in vivo, po, 504 h
[12] = system: Lenvatinib-resistant HCC/Len; assay: Antitumor activity against human Lenvatinib-resistant HCC/Len cells xenografted in BALB/c nude mouse model of PDX assessed as reduction in Ki-67 protein expression tumor tissue at 3 mg/kg, IG cotreated with lobeline 5 times per week for 3 weeks by immunohistochemistry analysis; type: functional, organism-based
[13] = Toxicity in BALB/c nude mouse PDX model xenografted with human Lenvatinib-resistant HCC/Len cells assessed as changes in body weight at 3 mg/kg, IG cotreated with lobeline 5 times per week for 3 weeks administered 5 times per week for 3 weeks; type: organism-based; settings: in vivo, po, 504 h
[14] = system: Lenvatinib-resistant Hep3B/Len; assay: Inhibition of cell migration in human Lenvatinib-resistant Hep3B/Len cells at 5 uM incubated for 48 hrs by transwell assay; type: functional, cell-based
[15] = system: Lenvatinib-resistant HCC/Len; assay: Antitumor activity against human Lenvatinib-resistant HCC/Len cells xenografted in BALB/c nude mouse model of PDX assessed as inhibition of tumor volume at 3 mg/kg, IG cotreated with lobeline 5 times per week for 3 weeks relative to control; type: functional; settings: po, 504 h
[16] = system: Lenvatinib-resistant Huh7/Len; assay: Antiproliferative activity against human Lenvatinib-resistant Huh7/Len cells assessed as inhibition of clone formation ability at 5 to 10 uM preincubated for 72 hrs and measured after 7 to 10 days in presence of lobeline by crystal violet staining based assay; type: functional, cell-based; settings: dose 5-10 µM, time 10-13 day
[17] = system: Lenvatinib-resistant Huh7/Len; assay: Inhibition of cell migration in human Lenvatinib-resistant Huh7/Len cells at 5 uM incubated for 48 hrs by transwell assay; type: functional, cell-based
[18] = system: Lenvatinib-resistant Hep3B/Len; assay: Antiproliferative activity against human Lenvatinib-resistant Hep3B/Len cells assessed as inhibition of clone formation ability at 5 to 10 uM preincubated for 72 hrs and measured after 7 to 10 days in presence of lobeline by crystal violet staining based assay; type: functional, cell-based; settings: dose 5-10 µM, time 10-13 day
[19] = Toxicity in BALB/c nude mouse PDX model xenografted with human Lenvatinib-resistant HCC/Len cells assessed as changes in body weight at 3 mg/kg, IG administered 5 times per week for 3 weeks; type: organism-based; settings: in vivo, po, 504 h
[20] = Toxicity in BALB/c nude mouse PDX model xenografted with human Lenvatinib-resistant HCC/Len cells assessed as changes in organ index at 3 mg/kg, IG cotreated with lobeline 5 times per week for 3 weeks administered 5 times per week for 3 weeks; type: organism-based; settings: in vivo, po, 504 h
[21] = system: Lenvatinib-resistant Huh7/Len; assay: Antitumor activity against human Lenvatinib-resistant Huh7/Len cells xenografted in BALB/c nude mouse assessed as inhibition of tumor volume at 3 mg/kg, IG cotreated with lobeline 5 times per week for 3 weeks relative to control; type: functional; settings: po, 504 h
[22] = Toxicity in BALB/c nude mouse PDX model xenografted with human Lenvatinib-resistant HCC/Len cells assessed as changes in organ index at 3 mg/kg, IG administered 5 times per week for 3 weeks; type: organism-based; settings: in vivo, po, 504 h
[23] = system: Lenvatinib-resistant Huh7/Len; assay: Antiproliferative activity against human Lenvatinib-resistant Huh7/Len cells assessed as inhibition of cell viability up to 40 uM after 72 hrs in presence of lobeline by CCK-8 assay; type: functional, cell-based
[24] = system: Lenvatinib-resistant Huh7/Len; assay: Antiproliferative activity against human Lenvatinib-resistant Huh7/Len cells assessed as inhibition of clone formation ability at 5 to 10 uM preincubated for 72 hrs and measured after 7 to 10 days by crystal violet staining based assay; type: functional, cell-based; settings: dose 5-10 µM, time 10-13 day
[25] = system: Lenvatinib-resistant Huh7/Len; assay: Inhibition of cell migration in human Lenvatinib-resistant Huh-7/Len cells at 5 uM incubated for 48 hrs in presence of lobeline by transwell assay relative to control; type: functional
[26] = system: Lenvatinib-resistant Huh7/Len; assay: Antitumor activity against human Lenvatinib-resistant Huh7/Len cells xenografted in BALB/c nude mouse assessed as tumor growth inhibition at 3 mg/kg, IG cotreated with lobeline 5 times per week for 3 weeks; type: functional, organism-based

COc1cc2nccc(Oc3ccc(NC(=O)NC4CC4)c(Cl)c3)c2cc1C(N)=O [LENVATINIB]
active: Activity [3] | TGI [4] | inhibition [7] | Activity [10] | Activity [12] | inhibition [23] | TGI [26]
30%: Activity [6]
42%: inhibition at 5 µM [2] | inhibition at 5 µM [25]
60%: inhibition in vivo at 3 mg/kg [15]
Non-Toxic: Activity [1] | Activity [8] | Activity [9] | Activity [11] | Activity [13] | Activity [19] | Activity [20] | Activity [22]
inactive: inhibition [5] | inhibition [14] | inhibition [16] | inhibition [17] | inhibition [18] | inhibition [24]
68%: inhibition in vivo at 3 mg/kg [21]
